100 compounds from ChEMBL document CHEMBL3507680, “University of Dundee, Gates Library screen for HepG2 cell viability” can be followed below.

The data set can be described thus: Human HepG2 cell viability assay in 384 well format. Conditions: HepG2 cells, read-out: Inhibition. Details: dose 125 nL, time 70.5 hour; concentration not given beside the values. It is filed as toxicity, cell-based.
Turning to `O=S(=O)(NCC1CCOc2ccccc2C1)N1CCOCC1` (stereo not given), the cytotoxicity at 70.5 h was -14.9%. As to `CCS(=O)(=O)Nc1ccc2oc(C)c(C(=O)OC)c2c1`, the cytotoxicity at 70.5 h is -15%. Turning to `CCS(=O)(=O)c1ccc(N2CCC(NC(=O)C3CCCCC3)CC2)cc1`, the cytotoxicity at 70.5 h was 0.314%. On to `O=C(Cn1nc2c(cc1=O)CCCC2)NC(Cc1ccccc1)C(=O)O` (stereo not given), for which the cytotoxicity at 70.5 h is -10.7%. With `Cc1nc(C(=O)N2CCC(c3nnc(Cn4ccnc4)n3C)CC2)cs1`, the cytotoxicity at 70.5 h was -8.64%. As to `Cc1cc(C2CCCN(S(=O)(=O)N(C)C)C2)ccn1` (stereo not given), the cytotoxicity at 70.5 h worked out at 23.8%. The figure for `CC(OCC1CC1)C(=O)Nc1ncccc1I` (stereo not given) is -6.4%; for `Cc1cnn(C2CCCN(C(=O)c3ccnc(-n4ccnc4)c3)C2)c1` (stereo not given) it is -0.996%. With `CS(=O)(=O)N1CCN(Cc2ccc(F)cc2Br)CC1`, the cytotoxicity at 70.5 h is -9.98%. The figure for `c1ccc2c(N3CCOCC3)cnnc2c1` is -8.59%.

Consider `Cc1ccccc1CS(=O)(=O)c1nnc(N2CCOCC2)s1`, for which the cytotoxicity at 70.5 h came out at 8.66%. `COCCN1C[C@@H]2[C@@H](OC)CCN(Cc3cccs3)[C@@H]2C1`: the cytotoxicity at 70.5 h was -1.71%. The figure for `Cc1cnn(C2CN(CC(=O)NCCc3c[nH]c4ccccc34)C2)c1` is -9.92%; for `COC(=O)c1ccn(COc2ccccc2Cl)n1` it is -9.21%; for `CC(C)c1cc(NC(CO)CO)n2nccc2n1` it is -10.2%. Turning to `CCC(Nc1nccc(C2CCCC2)n1)c1ncccc1C` (stereo not given), the cytotoxicity at 70.5 h is 14.1%.

`Cc1nccn1-c1ccc(N2CCC(NC(C)C(C)C)CC2)cc1` (stereo not given): the cytotoxicity at 70.5 h is -2%. As to `CC(C)c1ncc2c(n1)CN(c1ncnc3[nH]ccc13)CC2`, the cytotoxicity at 70.5 h was 17.1%.

As to `CCNc1ncc(C(=O)N2CCc3c(nc(C)nc3N(C)C)C2)cn1`, the cytotoxicity at 70.5 h was found to be 25.4%. For `COc1ccc(N(c2ccc(C)cc2)c2ccc(C(=O)O)s2)cc1`, the cytotoxicity at 70.5 h was -0.995%.

`O=C1C[C@H]2[C@H](CCN2C(=O)c2cc[nH]n2)N1Cc1cccnc1`: the cytotoxicity at 70.5 h is -9.27%. On to `CN(C)CC(=O)N1CC2(CCN(S(=O)(=O)c3ccccc3)C2)C1`, for which the cytotoxicity at 70.5 h was -6.71%.

In the case of `COCc1cccc(CNCc2c(C)nn(C)c2N(C)C)c1`, the cytotoxicity at 70.5 h is 42.4%. With `Cc1cnc(N2CCC3(CCCN(c4ccc(C)nn4)C3)C2)nc1` (stereo not given), the cytotoxicity at 70.5 h was 14.4%. As for `CC(=O)N(C)Cc1cccc(NC(=O)N(C)CCc2cccs2)c1`, the cytotoxicity at 70.5 h is 11.4%. `COCCN1CCOCC2(C1)CN(C(=O)c1conc1C)CCO2` (stereo not given): the cytotoxicity at 70.5 h was -1.78%.

On to `CN1CCC(n2nc(Cc3cccc(Cl)c3)nc2Cn2ccnc2)CC1`, for which the cytotoxicity at 70.5 h was -8.49%. Take `COCCn1cnnc1CN(C)c1nc(N)nc2c1CCCC2`: the cytotoxicity at 70.5 h was 3.03%. For `c1cnc(N2C[C@H]3CCN(c4cccnc4)C[C@H]3C2)nc1`, the cytotoxicity at 70.5 h is -6.6%. Take `CCOc1ccc(CN2CC[C@](C)(O)C(C)(C)C2)cn1`: the cytotoxicity at 70.5 h is -1.38%.

Regarding `COC(=O)CC1CN(Cc2ccn(-c3ccc(F)cc3)n2)CCO1` (stereo not given), the cytotoxicity at 70.5 h was -8.65%. Regarding `COc1ccc(Cl)cc1C(=O)NCCNc1cnccn1`, the cytotoxicity at 70.5 h is -3.57%.

For the compound `COc1cccc2c1OCCCN(c1nc3c(c(=O)[nH]1)CCNCC3)C2`, the cytotoxicity at 70.5 h was -3.8%. Take `CCOc1cccc(NC(=O)c2cc[nH]n2)n1`: the cytotoxicity at 70.5 h is -3.18%.

Regarding `CCc1cc(NCCN2CCNC2=O)n2nccc2n1`, the cytotoxicity at 70.5 h worked out at 3.72%. In the case of `CCCNC(=O)Nc1ncc(-c2cccnc2)s1`, the cytotoxicity at 70.5 h is -9.71%.

For `COc1ccc(CNCc2ccnc(N3CCCCC3)c2)cc1OC`, the cytotoxicity at 70.5 h was -4.98%.

Take `CC(C)c1cc(NC(=O)CN2CCc3nn(C)c(=O)cc3C2)on1`: the cytotoxicity at 70.5 h was -4.73%. Regarding `CCOCC(O)CN1CCN(C(=O)c2cccc(CC#N)c2)CC1` (stereo not given), the cytotoxicity at 70.5 h is -1.07%. `NC(=O)c1cn[nH]c1NC(=O)c1ccc2c(c1)OCO2`: the cytotoxicity at 70.5 h is 1.1%. Regarding `CCCS(=O)(=O)CC(=O)NC(C)c1cccc(-n2cccn2)c1` (stereo not given), the cytotoxicity at 70.5 h is 10.5%. `CNc1cncc(C2CCCN2S(=O)(=O)c2ccccc2)n1` (stereo not given): the cytotoxicity at 70.5 h was determined as 0.983%.

For the compound `CC(=O)N1CCN(C(=O)Nc2cnc3c(cnn3C(C)C)c2)CC1`, the cytotoxicity at 70.5 h is 14.8%. Regarding `CC(C)c1cc(CNC(=O)N2CCC(Cc3cnn(C)c3)C2)on1` (stereo not given), the cytotoxicity at 70.5 h was -11.4%. The figure for `CN1CCC(N[C@@H]2CO[C@H](CNC(=O)C3CCCC3)[C@H]2O)CC1` is -3.54%; for `Cn1nc2c(cc1=O)CN(CC(=O)Nc1ccc(Cl)cn1)CC2` it is -3.49%; for `COc1cccc(CC(C)NC(=O)NC(C)C)c1` (stereo not given) it is -2.35%. The figure for `Cn1cccc(NC(=O)N2CCC(Cc3ccccc3)C2)c1=O` (stereo not given) is 19.7%. The figure for `CCn1cc(CN2CCCN(C(=O)c3ccn(C)c(=O)c3)CC2)cn1` is 20.6%. On to `CCn1ccnc1CN1CCN(c2nc(C)cc(OC)n2)CC1`, for which the cytotoxicity at 70.5 h is -9.98%. Consider `CCC(C)CS(=O)(=O)NC(=O)C1CCC1` (stereo not given), for which the cytotoxicity at 70.5 h stood at 21.3%. As for `O=C1[C@H]2CN(Cc3nccs3)C[C@H]2CN1c1ccsc1`, the cytotoxicity at 70.5 h is -1.21%. As to `Cc1csc(N2CCN(Cc3nccn3C)CC2C)n1` (stereo not given), the cytotoxicity at 70.5 h was -16.3%. Consider `O=C([C@@H]1COC[C@H]2CN(C3CCCC3)C[C@H]21)N1CCCO1`, for which the cytotoxicity at 70.5 h was -1.63%. On to `CCN(Cc1c(C)nn(CC)c1C)S(=O)(=O)c1cnn(C)c1`, for which the cytotoxicity at 70.5 h was -6%.

Turning to `CCN(CC)c1nc2ccsc2c(=O)n1CCC(=O)NCc1ccco1`, the cytotoxicity at 70.5 h was 12.3%. `Cc1ccc(-n2nnc(CC(=O)N3CCOCC3)c2C)cc1`: the cytotoxicity at 70.5 h is -10.7%.

Consider `CC(C)C1CN(c2cccc(C#N)n2)CCCN1Cc1ccc(F)cc1` (stereo not given), for which the cytotoxicity at 70.5 h was -15.7%.

Regarding `O=C(CCCc1ncc(-c2ccccc2)o1)N1CCN(CCO)CC1`, the cytotoxicity at 70.5 h was -7.53%. As for `O=C(c1ccc(-c2ccccc2)[nH]c1=O)N1CCN(C2CC2)CC1`, the cytotoxicity at 70.5 h was -8.84%. For `CC(C)OCc1ncn2c1CN(Cc1ccoc1)CCC2`, the cytotoxicity at 70.5 h was -11.8%. `Cn1c(C2CC2)nc2c1CCN(CC(=O)Nc1nncs1)C2`: the cytotoxicity at 70.5 h is -18.2%. In the case of `O=S1(=O)C[C@@H]2[C@H](C1)N(Cc1cc(F)cc(Cl)c1)CCN2CCO`, the cytotoxicity at 70.5 h was -0.108%. For `Cc1nc2cc(=O)[nH]n2c(C)c1CC(=O)Nc1ccc2ccccc2n1`, the cytotoxicity at 70.5 h was -6.2%. Turning to `Cc1cccc(CN(Cc2ccccn2)S(=O)(=O)N(C)C)c1`, the cytotoxicity at 70.5 h is 18.6%. In the case of `O=C(c1nn(-c2ccccc2F)cc1O)N1CCCC1`, the cytotoxicity at 70.5 h was -2.52%. As for `CCOCC(=O)N1CCC2(CC1)CN(Cc1cccnc1)C(=O)CO2`, the cytotoxicity at 70.5 h was -9.22%.

In the case of `OC(CNc1ncnc2c1CCNCC2)C(F)(F)F` (stereo not given), the cytotoxicity at 70.5 h was -4.22%. In the case of `O=C(NC(CO)CO)c1coc(COc2cccc(F)c2)n1`, the cytotoxicity at 70.5 h is -13%. The figure for `Cc1nc(CN2C(=O)C[C@H]3[C@H]2CCN3C2CCOCC2)cs1` is -2.79%. The figure for `CC(C)[C@H]1CN(Cc2nccn2C)C[C@@H]1NC(=O)CCS(C)(=O)=O` is -5.68%; for `Cn1cc(CN2CCC3(CC2)NC(=O)CC3c2ccncc2)cn1` (stereo not given) it is 12.2%. For `Cc1ccc(-c2nc(CNCCn3cccn3)cs2)o1`, the cytotoxicity at 70.5 h is -7.84%. The figure for `N#Cc1ccc(N2CCN(c3ccc4nncn4n3)CC2)nc1` is -2%; for `Cc1cnn(C2CN(CC(=O)NCC3(c4ccccc4)CC3)C2)c1` it is -6.95%; for `CCC(=O)N1Cc2nnc(C3CCOCC3)n2C(Cc2c[nH]cn2)C1` (stereo not given) it is -7.01%.

Take `CN(C)CCCN(Cc1cnn(C)c1)Cc1ccco1`: the cytotoxicity at 70.5 h is -2.57%. For the compound `O=C(NCCOc1ccccc1)C1NCCc2[nH]cnc21` (stereo not given), the cytotoxicity at 70.5 h was -7.83%. As to `CCOc1cccc(C(=O)Nc2ccn(CC)n2)c1`, the cytotoxicity at 70.5 h was -19.9%. The figure for `c1ncn(CC2CN(CC3CCCC3)CCO2)n1` (stereo not given) is 0.357%; for `Clc1cccc(C(CNCc2ccccn2)N2CCOCC2)c1` (stereo not given) it is 48.6%; for `CNc1cncc(C2CCCN2Cc2cccc(C)n2)n1` (stereo not given) it is -6.12%. As for `CC[C@H](C)[C@H](N)C(=O)Nc1nc(-c2cnc(N3CCOCC3)nc2)cs1`, the cytotoxicity at 70.5 h was -1.59%.

For the compound `Cc1nnsc1CN(C)C(=O)c1ccc(CSc2nnc[nH]2)o1`, the cytotoxicity at 70.5 h was -10.2%. Regarding `CCCN(Cc1ccccc1O)S(=O)(=O)N(C)CC`, the cytotoxicity at 70.5 h is -6.19%. `Cc1cc(-c2cc(S(=O)(=O)N3C[C@H](C4CC4)[C@@H](N)C3)c(C)s2)[nH]n1`: the cytotoxicity at 70.5 h was -9.13%. As for `CCC1CN(C(=O)c2cccc(O)c2)CCC(=O)N1Cc1ccccc1` (stereo not given), the cytotoxicity at 70.5 h was 0.303%. The figure for `Cc1nc(CC(=O)N2CCC(Nc3cccnn3)CC2)cs1` is -6.73%; for `Cc1nn(C(C)C)c(C)c1S(=O)(=O)Nc1cccc(F)c1` it is -0.473%.

Turning to `CCn1c(CN(C)C)nnc1C1CCN(Cc2ccc(Cl)c(F)c2)CC1`, the cytotoxicity at 70.5 h is -6.05%. The figure for `O=C(NCC1CCCO1)Nc1nnc(C(F)(F)F)s1` (stereo not given) is -15.8%. For `CS(=O)(=O)CCSc1cccc(C#N)c1`, the cytotoxicity at 70.5 h was -4.4%. As for `COc1ccc2nnc(CCCC(=O)NCc3ccccc3)n2n1`, the cytotoxicity at 70.5 h was -13.2%. For `CCn1ncc2c1C(COC)CN(Cc1ccc(C)o1)C2` (stereo not given), the cytotoxicity at 70.5 h worked out at 2.21%. The figure for `CS(=O)(=O)CCCC(=O)Nc1cc(Cl)c(Cl)cn1` is 0.966%. Take `Cc1ccc(SCC(=O)NS(=O)(=O)c2ccc3c(c2)OCCO3)cc1`: the cytotoxicity at 70.5 h was -1.91%. Consider `O=C(c1ccc[nH]1)N1C[C@H]2CC[C@@H]1CN(C1Cc3ccccc3C1)C2`, for which the cytotoxicity at 70.5 h is -9.66%. On to `CC(C(=O)N1CCCC1)N1CCN(c2ncc(Cl)cn2)CC1` (stereo not given), for which the cytotoxicity at 70.5 h was -3.08%. The figure for `O=C(Cn1cc(I)cn1)N1CCNC1=O` is -8.59%. In the case of `CC(C)c1ncc2c(n1)CN(CCCc1nc3ccccc3o1)CC2`, the cytotoxicity at 70.5 h was -3.98%.
